Results taken from patent publication US10752596B2, “Nitrogen-containing heteroaryl compound and pharmaceutical use thereof” (JAPAN TOBACCO INC., priority 2017, dated 2020).
Where a name gives a salt, the structure may show the parent alone.

target: human GLUT9 (Homo sapiens (Human), UniProt Q9NRM0); assay: Evaluation of human GLUT9 inhibitory activity ([14C] uric acid uptake in human GLUT9 expressing HEK293T cells transduced with Uricase/Hyper); assay type: cell-based; conditions: HEK-293T, 10 μM compound, human GLUT9 stably expressing HEK293T cells, read-out: GLUT9 inhibitory rate at 10 μM of compound
Sequence (Q9NRM0 other isoform, or with tags, fused parts or gaps): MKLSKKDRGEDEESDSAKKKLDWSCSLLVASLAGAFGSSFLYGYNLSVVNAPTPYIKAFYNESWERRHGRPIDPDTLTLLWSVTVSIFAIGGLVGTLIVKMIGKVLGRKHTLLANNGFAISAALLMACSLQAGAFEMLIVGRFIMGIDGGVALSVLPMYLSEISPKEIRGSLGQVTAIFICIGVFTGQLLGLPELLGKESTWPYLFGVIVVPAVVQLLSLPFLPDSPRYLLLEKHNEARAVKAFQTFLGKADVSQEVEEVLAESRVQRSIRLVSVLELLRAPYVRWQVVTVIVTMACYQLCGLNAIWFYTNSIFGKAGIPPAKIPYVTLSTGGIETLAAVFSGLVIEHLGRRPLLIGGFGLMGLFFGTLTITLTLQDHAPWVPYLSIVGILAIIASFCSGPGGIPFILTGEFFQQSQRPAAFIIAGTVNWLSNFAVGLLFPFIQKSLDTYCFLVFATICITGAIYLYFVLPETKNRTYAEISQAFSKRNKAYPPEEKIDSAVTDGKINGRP
Experimental: A method for measuring GLUT9 inhibitory activity using human GLUT9 expressing cells transduced with Uricase/Hyper is shown hereinafter. GLUT9 inhibitory activity ([…]) of the test compound was calculated based on the intracellular uptake amount of labeled uric acid ([^14C] uric acid) transported by GLUT9.
1. Preparation of Human GLUT9 Expression Plasmid
Human GLUT9S coding region (NM_001001290.1) was amplified by PCR method using PrimeSTAR MAX DNA Polymerase (Takara Bio). The obtained PCR product was subjected to agarose gel electrophoresis, and the desired size of PCR product was purified by QIAquick Gel Extraction Kit (QIAGEN). Next, pEBMulti-Bsd vector (Wako Pure Chemical Industries, Ltd.) was subjected to digestion using restriction enzymes SalI and EcoR V, and linked to the PCR product containing GLUT9S by In-Fusion reaction using In-Fusion HD Cloning Kit (Takara Bio). XL10-Gold Competent Cells (Agilent Technologies) were transformed in In-Fusion reaction solution, and the obtained transfectants were cultured with shaking overnight in LB medium to which Blasticidin S HCl (Thermo Fisher Scientific) was added. Human GLUT9 expression plasmid DNA was prepared from the collected transfectants using EndoFree Plasmid Kit (Takara Bio).
2. Establish of Human GLUT9 Stably Expressing Cell
HEK293T cells (American Type Culture Collection, DS Pharma Biomedical) were seeded in a 6 well plate at 1×10^6 cells/well. Next day, human GLUT9 expression plasmid was transfected by using Lipofectamine 3000 Reagent (Thermo Fisher Scientific) as follows. Lipofectamine 3000 Reagent (5 μL) was diluted with Opti-MEM (125 μL, Thermo Fisher Scientific). Separately, plasmid DNA (2.5 μg) was diluted with Opti-MEM (125 μL), and P3000 Reagent (5 μL) was added thereto. The obtained solution was mixed with the previously obtained diluted solution, and the mixture was left stand at room temperature for 5 min, and added to the cells. Next day, the transfected cells were diluted and reseeded in a 6 well plate at 4×10^5 cells/well, and drug selection was performed in the presence of 30 μg/mL of Blasticidin S HCl, and thereby, Blasticidin-resistant human GLUT9 stably expressing cell line was established. Mock cells were prepared by introducing pEBMulti-Bsd vector into HEK293T cells in a similar manner.
3. Preparation of Uricase/Hyper Expression Plasmid
Uricase/Hyper expression plasmid was prepared by linking the coding regions of Aspergillus Flavus-derived uricase gene and pHyPer-Cyto vector (Evrogen) HyPer gene to the pEBMulti-Hyg vector (Wako Pure Chemical Industries, Ltd.) and then introducing it. The preparation method was performed by reference to Gout and Nucleic Acid Metabolism 2013, 37(2), 93-101, and seven repeated linker sequence of glycine-glycine-glycine-serine was prepared herein.
4. Preparation of Human GLUT9-Uricase/Hyper Coexpressing Cell
Human GLUT9 stably expressing cells were seeded at 3.6×10^7 cells per 225 cm^2 flask. Next day, Uricase/Hyper expression plasmid was transfected by using Lipofectamine 3000 Reagent as follows. Lipofectamine 3000 Reagent (40 μL) was diluted with Opti-MEM (750 μL). Separately, plasmid DNA (20 μg) was diluted with Opti-MEM (750 μL), and P3000 Reagent (40 μL) was added thereto. The obtained solution was mixed with the previously obtained diluted solution, and the mixture was left stand at room temperature for 5 min, and added to the cells. Next day, transfected cells were collected to prepare human GLUT9-Uricase/Hyper coexpressing cells.
5. Evaluation of GLUT9 Inhibitory Activity
Uricase/Hyper transiently-transfected human GLUT9 stably expressing cells or mock cells (blank) were seeded in a 96 well plate (Corning) at 1.6×10^5 cells/well, and cultured overnight at 37° C., 5% CO2. D-MEM/high glucose (Wako Pure Chemical Industries, Ltd.) containing 10% Fetal Bovine Serum (Lifetechnology) and 100 units/ml penicillin/100 μg/ml streptomycin (GIBCO) was used as a medium.

| Structure (SMILES) | inhibition at 10 µM |
| --- | --- |
| CCCCc1cnc(-c2ccc(C(=O)O)cc2)c(-c2ccc(C(=O)O)cc2)n1 [Example 7] | 9% |
| CCCCc1cnc(-c2ccc(OC)c(C(=O)O)c2)c(-c2ccc(C(=O)O)cc2)n1 [Example 15] | 5% |
| CCCCc1cnc(-c2ccc(C(=O)N(C)C)cc2)c(-c2ccc(C(=O)O)cc2)n1 [Example 22] | 9% |
| CCCCc1cnc(-c2ccc(O)cc2)c(-c2ccc(C(=O)O)cc2)n1 [Example 33] | 28% |
| COc1ccc(-c2ncc(CC3CCCCC3)cc2-c2ccc(C(=O)O)cc2)cc1 [Example 47] | 47% |
| COc1ccc(-c2ncc(C3CCOCC3)cc2-c2ccc(C(=O)O)cc2)cc1 [Example 60] | 45% |
| CCCCNC(=O)c1cnc(-c2ccc(OC)cc2)c(-c2ccc(C(=O)O)cc2)c1 [Example 76, 4-(5-(butylcarbamoyl)-2-(4-methoxyphenyl)pyridin-3-yl)benzoic Acid Hydrochloride] | 10% |

same assay, conditions: final 300 μM uric acid, 6 min, human GLUT9 stably expressing HEK293T cells, read-out: humans GLUT9 inhibitory activity (IC50 value (μM))

| Structure (SMILES) | IC50 |
| --- | --- |
| CCCCc1cnc(-c2ccc(OC)cc2)c(-c2ccc(C(=O)O)cc2)n1 [Example 1] | 0.0807 µM |
| CCCCc1cnc(-c2ccc(OC)cc2C)c(-c2ccc(C(=O)O)cc2)n1 [Example 2] | 0.946 µM |
| CCCCc1cnc(-c2ccc(OC)cc2F)c(-c2ccc(C(=O)O)cc2)n1 [Example 3] | 0.134 µM |
| CCCCc1cnc(-c2ccc(OC)cc2)c(-c2ccc(C(=O)O)cc2F)n1 [Example 5] | 0.0626 µM |
| CCCCc1cnc(-c2ccc(OC)cc2)c(-c2ccc(C(=O)O)c(OC)c2)n1 [Example 6] | 0.141 µM |
| CCCCc1cnc(-c2ccc(C#N)cc2)c(-c2ccc(C(=O)O)cc2)n1 [Example 9] | 0.483 µM |
| CCCCc1cnc(-c2ccc(F)cc2)c(-c2ccc(C(=O)O)cc2)n1 [Example 10] | 1.78 µM |
| CCCCc1cnc(-c2ccc(OC)c(F)c2)c(-c2ccc(C(=O)O)cc2)n1 [Example 11] | 0.0659 µM |
| COc1ccc(-c2ncc3c(c2-c2ccc(C(=O)O)cc2)CCCC3)cc1 [Example 12] | 5.06 µM |
| CCCCc1cnc(-c2ccc(OC)cc2)c(-c2ccc(C(=O)O)c(F)c2)n1 [Example 14] | 0.0914 µM |
| CCCCc1cnc(-c2ccc(OC)c(Cl)c2)c(-c2ccc(C(=O)O)cc2)n1 [Example 16] | 0.0819 µM |
| CCCCc1cnc(-c2ccc(OC)c(C#N)c2)c(-c2ccc(C(=O)O)cc2)n1 [Example 17] | 0.692 µM |
| CCCCc1cnc(-c2ccc(OC)cc2)c(-c2ccc(C(=O)O)cc2)c1 [Example 18] | 0.0942 µM |
| CCCCc1cnc(-c2ccc(OC)c(C(F)(F)F)c2)c(-c2ccc(C(=O)O)cc2)n1 [Example 19] | 3.07 µM |
| COCCCCc1cnc(-c2ccc(OC)cc2)c(-c2ccc(C(=O)O)cc2)n1 [Example 20] | 0.12 µM |
| CCCCc1cnc(-c2cc(F)c(OC)c(F)c2)c(-c2ccc(C(=O)O)cc2)n1 [Example 21] | 0.0607 µM |
| CCCCc1cnc(-c2ccc(C(F)(F)F)c(OC)c2)c(-c2ccc(C(=O)O)cc2)n1 [Example 23] | 0.992 µM |
| CCCCc1cnc(-c2ccc(C(F)(F)F)c(F)c2)c(-c2ccc(C(=O)O)cc2)n1 [Example 24] | 0.134 µM |
| CCCCc1cnc(-c2ccc(C(F)(F)F)c(C)c2)c(-c2ccc(C(=O)O)cc2)n1 [Example 26] | 0.154 µM |
| CCCCc1cnc(-c2ccc(C(F)(F)F)c(C(F)(F)F)c2)c(-c2ccc(C(=O)O)cc2)n1 [Example 28] | 4.25 µM |
| CCCCc1cnc(-c2ccc(Cl)cc2)c(-c2ccc(C(=O)O)cc2)n1 [Example 31] | 0.134 µM |
| CCCCc1cnc(-c2ccc3c(c2)CCO3)c(-c2ccc(C(=O)O)cc2)n1 [Example 32] | 0.0888 µM |
| CCCCc1cnc(-c2ccc(C3CC3)cc2)c(-c2ccc(C(=O)O)cc2)n1 [Example 34] | 0.124 µM |
| COCCCCc1cnc(-c2cc(F)c(OC)c(F)c2)c(-c2ccc(C(=O)O)cc2)n1 [Example 35] | 0.119 µM |
| CCCc1cnc(-c2ccc(C(F)(F)F)cc2)c(-c2ccc(C(=O)O)cc2)n1 [Example 36] | 0.189 µM |
| CCCc1cnc(-c2ccc(OC)cc2)c(-c2ccc(C(=O)O)cc2)n1 [Example 37] | 0.111 µM |
| CCCCc1cnc(-c2ccc(OC)cc2)c(-c2ccc(CC(=O)O)cc2)n1 [Example 38] | 0.865 µM |

| Structure (SMILES) | IC50 |
| --- | --- |
| CCCCc1cnc(-c2ccc(OC)cc2)c(-c2ccc(C(=O)O)cc2)c1C [Example 39] | 1.45 µM |
| COc1ccc(-c2ncc(CCC3CCCCC3)cc2-c2ccc(C(=O)O)cc2)cc1 [Example 42] | 6.5 µM |
| COc1ccc(-c2ncc(CCCOCCO)cc2-c2ccc(C(=O)O)cc2)cc1 [Example 43] | 7.13 µM |
| COc1ccc(-c2ncc(CCCC3(O)CCC3)cc2-c2ccc(C(=O)O)cc2)cc1 [Example 44] | 1.65 µM |
| CCCCc1cnc(-c2ccc(OC)cc2)c(-c2ccc(C(C)(C)C(=O)O)cc2)n1 [Example 48] | 7.12 µM |
| CCCCc1cnc(-c2ccc3c(c2)CCCO3)c(-c2ccc(C(=O)O)cc2)n1 [Example 49] | 0.201 µM |
| CCCCc1cnc(-c2ccc3c(c2)OCCO3)c(-c2ccc(C(=O)O)cc2)n1 [Example 50] | 0.133 µM |
| COc1ccc(-c2ncc(CCCCO)cc2-c2ccc(C(=O)O)cc2)cc1 [Example 51] | 0.962 µM |
| COc1ccc(-c2ncc(CCC3CC3)cc2-c2ccc(C(=O)O)cc2)cc1 [Example 52] | 0.119 µM |
| CCCCc1cnc(-c2ccc(C(C)(C)C)cc2)c(-c2ccc(C(=O)O)cc2)n1 [Example 55] | 3.99 µM |
| CCc1cnc(-c2ccc(OC)cc2)c(-c2ccc(C(=O)O)cc2)c1 [Example 56] | 0.18 µM |
| COc1ccc(-c2ncc(C(C)C)cc2-c2ccc(C(=O)O)cc2)cc1 [Example 57] | 0.344 µM |
| COc1ccc(-c2ncc(CC(C)C)cc2-c2ccc(C(=O)O)cc2)cc1 [Example 58] | 0.052 µM |
| COc1ccc(-c2ncc(C3CCCC3)cc2-c2ccc(C(=O)O)cc2)cc1 [Example 59] | 0.132 µM |
| COc1ccc(-c2ncc(CCCO)cc2-c2ccc(C(=O)O)cc2)cc1 [Example 61] | 5.59 µM |
| COc1ccc(-c2ncc(CCC(F)(F)F)cc2-c2ccc(C(=O)O)cc2)cc1 [Example 62] | 0.127 µM |
| COc1ccc(-c2ncc(CCC3CCCC3)cc2-c2ccc(C(=O)O)cc2)cc1 [Example 63] | 0.659 µM |
| CCCCc1cnc(-c2cc(F)c(OC)c(Cl)c2)c(-c2ccc(C(=O)O)cc2)n1 [Example 64] | 0.0987 µM |
| CCCCc1cnc(-c2cc(Cl)c(OC)c(Cl)c2)c(-c2ccc(C(=O)O)cc2)n1 [Example 65] | 0.0946 µM |
| CCCc1cnc(-c2cc(F)c(OC)c(F)c2)c(-c2ccc(C(=O)O)cc2)n1 [Example 66] | 0.077 µM |
| CCCCc1cnc(-c2ccc(OC)cc2)c(-c2cc(F)c(C(=O)O)c(F)c2)n1 [Example 69] | 0.856 µM |
| CCCCc1cnc(-c2ccc(OC)cc2)c(-c2ccc(OCC(=O)O)cc2)n1 [Example 70] | 1.67 µM |
| CCCCc1cnc(-c2ccc(OC)cc2)c(-c2ccc(CCC(=O)O)cc2)n1 [Example 71] | 0.132 µM |
| CCCCc1cnc(-c2ccc(OC)cc2)c(-c2ccc(CC(=O)O)c(F)c2)n1 [Example 72] | 0.526 µM |
| CCOCCc1cnc(-c2ccc(OC)cc2)c(-c2ccc(C(=O)O)cc2)c1 [Example 73] | 0.104 µM |
| CCCCc1cnc(-c2ccc(OC(F)(F)F)cc2)c(-c2ccc(C(=O)O)cc2)n1 [Example 75] | 0.0844 µM |
| CCOCCCc1cnc(-c2ccc(OC)cc2)c(-c2ccc(C(=O)O)cc2)c1 [Example 77] | 0.0585 µM |
